Molecular target: T1, CpsB (Streptococcus pneumoniae, UniProt Q9AHD4)
T1 construct: His6CpsB
Assay: inhibition of pNPP dephosphorylation by purified His6CpsB (A410)
Format: biochemical

T1 sequence (Q9AHD4 whole entry, looked up): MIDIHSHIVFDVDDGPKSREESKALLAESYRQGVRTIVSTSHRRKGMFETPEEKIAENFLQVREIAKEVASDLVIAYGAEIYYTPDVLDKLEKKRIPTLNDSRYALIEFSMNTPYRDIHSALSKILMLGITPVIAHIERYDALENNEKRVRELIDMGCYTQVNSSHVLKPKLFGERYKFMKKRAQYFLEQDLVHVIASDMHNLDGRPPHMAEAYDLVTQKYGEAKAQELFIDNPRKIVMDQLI

SMILES: CC(C)=CCC/C(C)=C/CC/C(C)=C/CC/C(C)=C/Cc1cc(OS(=O)(=O)O)ccc1O [FQE, fascioquinol E]
- IC50: 5.21 µM
